Reference: patent publication US20250255867A1 (Kadmon Corporation, LLC, priority 2022, published 2025)

Tested on: subjects with BOS
Experiment: Example 3 combined analysis: lung-specific NIH response in BOS
Type: in vivo, human
Protocol: Subjects enrolled in the clinical studies described in Examples 1 and 2 served as the population for the combined analysis.
Patients with BOS were identified as: 1) % predicted forced expiratory volume in 1 second (% FEV1) of £79% at enrollment, and 2) clinician attribution of lung disease due to cGVHD.
In Example 1, lung function assessments were conducted at baseline and on Day 1 of each cycle for patients with suspected of known lung involvement. In Example 2, lung function assessments were conducted at baseline and at the time of response assessments: Day 1 of cycles 2-5 and then on Day 1 of every other cycle thereafter.
The severity of cGVHD was graded according to the 2014 NIH Consensus Criteria. […] According to these criteria, a complete response (CR) in the lung is defined as normal % FEV1 after previous involvement or in the absence of PFTs, a NIH lung Symptom Score of 0 after previous involvement. Partial response (PR) in the lung is defined as an increase by 10% predicted absolute value of % FEV1 or in the absence of PFTs, a decrease in NIH Lung Symptom Score by 1 or more points. Progression of lung disease is defined as a decrease by 10% predicted absolute value of % FEV1 or in the absence of PFTs, an increase in NIH Lung Symptom Score by 1 or more points, except 0 to 1.
Baseline characteristics were reported descriptively. Univariable and multivariable logistic regression analysis was performed to investigate clinical factors (listed in Table 1) that were associated with NIH lung response. Correlation analysis was performed to assess correlation among lung response metrics. All testing was two-sided at the significance level of 0.05. All analyses were performed using SAS 9.3 (SAS Institute Inc., Cary, NC), and R v3.5.2 (the CRAN project).

[1] = NIH Lung Score at baseline 1, 30 subjects
[2] = NIH Lung Score at baseline 2, 23 subjects
[3] = NIH Lung Score at baseline 3, 6 subjects

Structure (SMILES): CC(C)NC(=O)COc1cccc(-c2nc(Nc3ccc4[nH]ncc4c3)c3ccccc3n2)c1 [Belumosudil, 2-{3-[4-(1H-indazol-5-ylamino)-2-quinazolinyl]phenoxy}-N-(propan-2-yl) acetamide]
- Best ORR for pulmonary cGVHD, NIH response criteria (59 subjects): 32%
- PR for pulmonary cGVHD, NIH response criteria (59 subjects): 17%
- Lung-specific NIH response, Best ORR [1]: 50%
- Lung-specific NIH response, CR rate [1]: 27%
- Lung-specific NIH response, PR rate [1]: 23%
- Lung-specific NIH response, Best ORR [2]: 17%
- Lung-specific NIH response, CR rate [2]: 4%
- Lung-specific NIH response, PR rate [2]: 13%
- Lung-specific NIH response, Best ORR [3]: 0%
- Lung-specific NIH response, CR rate [3]: 0%
- Lung-specific NIH response, PR rate [3]: 0%
- Lung-specific NIH response, Best ORR (Total, 59 subjects): 32%
- Lung-specific NIH response, CR rate (Total, 59 subjects): 15%
- Lung-specific NIH response, PR rate (Total, 59 subjects): 17%
- Best lung ORR (baseline NIH lung score 1): 50%
- Lung CR (baseline NIH lung score 1): 27%
- Lung PR (baseline NIH lung score 1): 23%
- Best lung ORR (baseline NIH lung score 2): 17%
- Lung CR (baseline NIH lung score 2): 4%
- Lung PR (baseline NIH lung score 2): 13%
- Best ORR for lung cGVHD, NIH response with PFTs alone (in vivo): 24%
- CR for lung cGVHD, PFTs alone (in vivo): 10%
- PR for lung cGVHD, PFTs alone (in vivo): 14%
- Median time to first NIH lung response (range, 3-39): 5 cycles
- Median time to best NIH lung response (range, 3-41): 7 cycles
